Experimental data as given in publication PMC6440977, “Nucleoside analogue activators of cyclic AMP-independent protein kinase A of Trypanosoma” (Nature Communications, 2019).
Where “and” joins values, the source holds several entries; their conditions need not be identical. Identical values can stand only once. Like-named read-outs stand apart in the source and are kept apart here.

How the values were obtained:
T. brucei PKA [1] = target: T1, T. brucei PKA (Trypanosoma brucei brucei, UniProt Q9GU80); assay: In vivo PKA reporter assay (VASP Ser-157 phosphorylation, western blot); assay type: cell-based;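 further: T. brucei cells expressing human VASP as heterologous PKA substrate, compound exposure at 37 °C, western blot of phospho (50 kDa) versus unphosphorylated (46 kDa) VASP band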
T1 sequence (Q38DS1 entry or part of it): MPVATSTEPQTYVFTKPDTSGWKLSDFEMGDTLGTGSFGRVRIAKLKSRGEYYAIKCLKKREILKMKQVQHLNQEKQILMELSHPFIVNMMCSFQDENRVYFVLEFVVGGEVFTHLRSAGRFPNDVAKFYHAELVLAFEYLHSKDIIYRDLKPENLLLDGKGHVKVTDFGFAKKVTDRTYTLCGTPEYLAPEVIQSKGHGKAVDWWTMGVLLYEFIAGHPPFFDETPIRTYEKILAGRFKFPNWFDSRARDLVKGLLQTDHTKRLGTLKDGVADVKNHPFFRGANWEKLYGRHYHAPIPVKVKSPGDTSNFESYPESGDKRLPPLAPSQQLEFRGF
T1 sequence (Q38DR5 entry or part of it, further chain): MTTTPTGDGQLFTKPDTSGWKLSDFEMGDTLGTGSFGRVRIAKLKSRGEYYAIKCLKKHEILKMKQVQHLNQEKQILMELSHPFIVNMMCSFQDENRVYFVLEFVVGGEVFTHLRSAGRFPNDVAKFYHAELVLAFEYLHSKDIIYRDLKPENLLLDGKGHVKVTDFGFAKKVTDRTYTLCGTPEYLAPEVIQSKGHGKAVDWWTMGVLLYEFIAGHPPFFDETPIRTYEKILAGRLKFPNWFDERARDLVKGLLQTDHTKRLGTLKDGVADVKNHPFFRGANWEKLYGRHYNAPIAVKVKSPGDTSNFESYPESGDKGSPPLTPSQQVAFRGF
T1 sequence (Q9GU80 entry or part of it): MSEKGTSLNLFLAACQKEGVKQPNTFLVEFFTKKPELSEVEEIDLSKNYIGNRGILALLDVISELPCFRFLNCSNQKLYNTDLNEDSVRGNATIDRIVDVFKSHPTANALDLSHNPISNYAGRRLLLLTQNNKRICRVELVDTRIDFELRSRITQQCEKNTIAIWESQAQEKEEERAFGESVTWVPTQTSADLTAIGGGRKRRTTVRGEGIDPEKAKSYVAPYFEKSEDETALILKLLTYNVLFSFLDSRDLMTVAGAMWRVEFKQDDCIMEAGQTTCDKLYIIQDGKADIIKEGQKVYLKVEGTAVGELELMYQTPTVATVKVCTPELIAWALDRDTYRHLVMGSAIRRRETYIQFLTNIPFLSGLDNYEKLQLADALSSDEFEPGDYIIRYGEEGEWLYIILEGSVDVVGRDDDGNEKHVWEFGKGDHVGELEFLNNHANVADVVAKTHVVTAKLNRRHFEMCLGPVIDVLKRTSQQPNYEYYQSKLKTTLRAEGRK

[2] = target: T2, mammalian PKARIα2–2PKACα holoenzyme (Homo sapiens, UniProt P10644); assay: In vitro kinase assay with purified mammalian holoenzyme; assay type: biochemical, human PKARIα, mouse PKACα; conditions: for In vitro kinase assay: technical replicates
T2 construct: The full length ORFs (amplified with primers introducing the respective); made in house; host or cells: E. coli strain APE304 (adenylate cyclase-deficient)
T2 sequence (P10644 whole entry): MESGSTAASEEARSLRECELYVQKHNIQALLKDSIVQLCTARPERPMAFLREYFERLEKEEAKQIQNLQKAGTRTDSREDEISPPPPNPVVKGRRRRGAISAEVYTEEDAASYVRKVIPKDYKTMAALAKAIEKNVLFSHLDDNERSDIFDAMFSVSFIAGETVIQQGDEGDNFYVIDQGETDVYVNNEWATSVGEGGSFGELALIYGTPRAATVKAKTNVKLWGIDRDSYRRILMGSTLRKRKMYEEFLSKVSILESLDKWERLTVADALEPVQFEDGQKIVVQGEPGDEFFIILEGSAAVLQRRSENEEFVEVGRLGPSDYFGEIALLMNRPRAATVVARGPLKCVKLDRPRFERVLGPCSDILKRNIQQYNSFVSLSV

[3] = test system: RXXS*/T* site phosphorylation; assay: Western blot of global RXXS*/T* site phosphorylation (phospho-PKA substrate antibody); assay type: cell-based, Trypanosoma brucei; conditions: wild type, 2 µM, 10 min
metacaspase 4 (MCA4) = assay type: cell-based, Trypanosoma brucei; conditions: for MCA4 counts / MCA4 normalized / MCA4 fold change: 4 µM; for MCA4 normalized: normalized to PFR-A/C; for MCA4 fold change: untreated WT set to 1
[4] = test system: T. brucei ∆pkar/∆pkar (pkar KO) cells; assay: microbe, parasite or virus in culture; assay type: cell-based, Trypanosoma brucei; conditions: for EC50: pkar KO cells
human PKARIα = target: T3, human PKARIα (Homo sapiens, UniProt P10644); assay: Binding by isothermal titration calorimetry (ITC)
T3 construct: The full length ORFs (amplified with primers introducing the respective); 6xHis followed by TEV site (N); made in house; host or cells: E. coli Rosetta D3
T3 sequence (P10644 whole entry): as above

PKAC1/2 = assay type: cell-based, Trypanosoma brucei; conditions: 4 µM; for PKAC1/2 normalized: normalized to PFR-A/C; for PKAC1/2 fold change: untreated WT set to 1;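 on all read-outs here: trypanosoma brucei cells, PKAC1/2 signal from western blots read on an infrared fluorescence scanning system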
T. brucei BSF cells (WT) = assay: Alamar blue cell viability assay, wild type; conditions: for EC50: wild type cells;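 on all read-outs here: trypanosomes seeded at 5×10^3 per ml and grown 72 h with compound, then resazurin 0.5 mM added for 4 h as the viability read-out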
[5] = target: T. brucei PKAR-PKAC1 holoenzyme (Trypanosoma brucei, UniProt Q9GU80); assay: biochemical; assay type: biochemical; conditions: for In vitro kinase assay: technical replicates
Sequence of T. brucei PKAR-PKAC1 holoenzyme (Q38DR5 entry or part of it): as the sequence (Q38DR5 entry or part of it, further chain) above

T. brucei PKAR(199–499) = T. brucei PKAR(199–499) (Trypanosoma brucei, UniProt Q9GU80); assay: biochemical; assay type: binding; design: Thermodynamics (ITC) -TΔS / Thermodynamics (ITC) ΔG / Thermodynamics (ITC) ΔH: unit: kcal/mol
Sequence of T. brucei PKAR(199–499) (Q9GU80 entry or part of it): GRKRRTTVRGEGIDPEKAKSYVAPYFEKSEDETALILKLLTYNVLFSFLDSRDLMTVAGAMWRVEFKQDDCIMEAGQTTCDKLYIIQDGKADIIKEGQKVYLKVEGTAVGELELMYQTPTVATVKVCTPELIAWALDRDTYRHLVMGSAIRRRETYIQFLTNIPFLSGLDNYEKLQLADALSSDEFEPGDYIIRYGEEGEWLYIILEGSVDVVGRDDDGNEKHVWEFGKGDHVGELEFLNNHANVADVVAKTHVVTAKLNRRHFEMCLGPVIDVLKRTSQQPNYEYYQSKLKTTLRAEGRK

[6] = test system: T. brucei PKA holoenzyme (HA-PKAC2); assay type: biochemical, Trypanosoma brucei; conditions: for in vitro kinase assay [CPM], average: average of 3; for in vitro kinase assay [CPM]: independent replicates
[7] = test system: T. brucei PKA holoenzyme (PKAR-Ty1); assay type: biochemical, Trypanosoma brucei; conditions: for in vitro kinase assay [CPM], average: average of 3; for in vitro kinase assay [CPM]: independent replicates
T. brucei PKA [8] = target: T1, T. brucei PKA; conditions: ref Shalaby et al. (reference 23 in manuscript); cited from earlier work
[9] = test system: T. brucei PKA holoenzyme (Ty1-PKAC1); assay type: biochemical, Trypanosoma brucei; conditions: for in vitro kinase assay [CPM], average: average of 3; for in vitro kinase assay [CPM]: independent replicates

N#Cc1cn([C@@H]2O[C@H](CO)[C@@H](O)[C@H]2O)c2ncnc(N)c12 [Toyo, 7-Cyano-7-deazaadenosine]
EC50 (T. brucei PKA [1]; VASP reporter, 15 min treatment, mean ± SD, read-out: EC50 in vivo PKA assay): 88 nM and 87.6 nM | induction of VASP phosphorylation in pkar knock out, in words (T. brucei PKA [1]; homozygous deletion of PKAR): did not induce phosphorylation of VASP | In vitro kinase assay ([2]; 0.05 µM): 0.0536 U/ml and 0.052 U/ml | In vitro kinase assay ([2]; 0.5 µM): 0.0466 U/ml and 0.0501 U/ml | In vitro kinase assay ([2]; 5 µM): 0.0571 U/ml and 0.0671 U/ml | In vitro kinase assay ([2]; 50 µM): 0.067 U/ml and 0.0605 U/ml | activation of mammalian PKARIα2–2PKACα holoenzyme, in words ([2]; up to 270-fold above EC50 for T. brucei PKA holoenzyme): did not activate | increase in global RXXS*/T* site phosphorylation [3]: 3–4 fold | MCA4 counts (metacaspase 4 (MCA4); WT, 12 h): 10.96 | MCA4 normalized (metacaspase 4 (MCA4); WT, 12 h): 7.611 | MCA4 fold change (metacaspase 4 (MCA4); WT, 12 h): 0.5155 | MCA4 counts (metacaspase 4 (MCA4); WT, 18 h): 19.07 | MCA4 normalized (metacaspase 4 (MCA4); WT, 18 h): 24.1392 | MCA4 fold change (metacaspase 4 (MCA4); WT, 18 h): 1.635 | MCA4 counts (metacaspase 4 (MCA4); WT, 24 h): 23.58 | MCA4 normalized (metacaspase 4 (MCA4); WT, 24 h): 24.8211 | MCA4 fold change (metacaspase 4 (MCA4); WT, 24 h): 1.681 | MCA4 abundance, in words (metacaspase 4 (MCA4); later time points, PKA-independent): elevated | MCA4 counts (metacaspase 4 (MCA4); pkar KO, 12 h): 13.45 | MCA4 normalized (metacaspase 4 (MCA4); pkar KO, 12 h): 0.4781 | MCA4 fold change (metacaspase 4 (MCA4); pkar KO, 12 h): 0.9855 | MCA4 counts (metacaspase 4 (MCA4); pkar KO, 18 h): 12.35 | MCA4 normalized (metacaspase 4 (MCA4); pkar KO, 18 h): 0.669 | MCA4 fold change (metacaspase 4 (MCA4); pkar KO, 18 h): 1.379 | MCA4 counts (metacaspase 4 (MCA4); pkar KO, 24 h): 14.17 | MCA4 normalized (metacaspase 4 (MCA4); pkar KO, 24 h): 0.8557 | MCA4 fold change (metacaspase 4 (MCA4); pkar KO, 24 h): 1.764 | MCA4 abundance, in words (metacaspase 4 (MCA4); wild type, 12 h post induction): decreased | IC50 ([4]; Trypanosoma brucei, 72 h, read-out: IC50 growth pkar KO): 690 ± 58 nM | EC50 ([4]; Trypanosoma brucei, read-out: EC50, Alamar blue cell viability assay, KO, individual replicate results): 941 nM | EC50 ([4]; read-out: EC50, Alamar blue cell viability assay, KO, individual replicate results): 768 nM and 560 nM and 610 nM and 492 nM and 666 nM and 791 nM | binding to purified human PKARIα, in words (human PKARIα): did not bind | PKAC1/2 counts (PKAC1/2; WT, 12 h): 34.11 | PKAC1/2 normalized (PKAC1/2; WT, 12 h): 23.6875 | PKAC1/2 fold change (PKAC1/2; WT, 12 h): 0.1712 | PKAC1/2 counts (PKAC1/2; WT, 18 h): 35.81 | PKAC1/2 normalized (PKAC1/2; WT, 18 h): 45.3291 | PKAC1/2 fold change (PKAC1/2; WT, 18 h): 0.3275 | PKAC1/2 counts (PKAC1/2; WT, 24 h): 31.4 | PKAC1/2 normalized (PKAC1/2; WT, 24 h): 33.0526 | PKAC1/2 fold change (PKAC1/2; WT, 24 h): 0.2388 | PKAC1/2 counts (PKAC1/2; pkar KO, 12 h): 38.16 | PKAC1/2 normalized (PKAC1/2; pkar KO, 12 h): 1.357 | PKAC1/2 fold change (PKAC1/2; pkar KO, 12 h): 0.08353 | PKAC1/2 counts (PKAC1/2; pkar KO, 18 h): 35.91 | PKAC1/2 normalized (PKAC1/2; pkar KO, 18 h): 1.945 | PKAC1/2 fold change (PKAC1/2; pkar KO, 18 h): 0.1198 | PKAC1/2 counts (PKAC1/2; pkar KO, 24 h): 34.95 | PKAC1/2 normalized (PKAC1/2; pkar KO, 24 h): 2.111 | PKAC1/2 fold change (PKAC1/2; pkar KO, 24 h): 0.13 | IC50 (T. brucei BSF cells (WT); Trypanosoma brucei, 72 h, read-out: IC50 growth WT): 739 ± 59 nM | EC50 (T. brucei BSF cells (WT); Trypanosoma brucei, read-out: EC50, Alamar blue cell viability assay, WT, individual replicate results): 866 nM | EC50 (T. brucei BSF cells (WT); read-out: EC50, Alamar blue cell viability assay, WT, individual replicate results): 746 nM and 898 nM and 614 nM and 641 nM and 510 nM and 901 nM | In vitro kinase assay ([5]; 0.001 µM): 0.11 U/ml and 0.14 U/ml | In vitro kinase assay ([5]; 0.01 µM): 0.16 U/ml | In vitro kinase assay ([5]; 0.02 µM): 0.18 U/ml and 0.15 U/ml | In vitro kinase assay ([5]; 0.04 µM): 0.31 U/ml and 0.25 U/ml | In vitro kinase assay ([5]; 0.08 µM): 0.3 U/ml and 0.33 U/ml | In vitro kinase assay ([5]; 0.16 µM): 0.45 U/ml and 0.4 U/ml | In vitro kinase assay ([5]; 0.31 µM): 0.58 U/ml and 0.64 U/ml | In vitro kinase assay ([5]; 0.63 µM): 0.61 U/ml and 0.73 U/ml | In vitro kinase assay ([5]; 1.25 µM): 0.71 U/ml and 0.74 U/ml | In vitro kinase assay ([5]; 2.5 µM): 0.78 U/ml and 0.82 U/ml | In vitro kinase assay ([5]; 5 µM): 0.82 U/ml and 0.75 U/ml and 4.49 U/ml and 4.39 U/ml | EC50 ([5]; kemptide phosphorylation, mean ± SD, read-out: EC50 in vitro PKA assay): 234 ± 92 nM | Kd (T. brucei PKAR(199–499); 298 K, mean ± SD, n=3, read-out: KD in vitro binding to PKAR (ITC)): 57 ± 25 nM | −TΔS (entropic component of binding) (T. brucei PKAR(199–499); ITC, mean): -0.9 kcal/mol | Thermodynamics (ITC) -TΔS (T. brucei PKAR(199–499); independent replicates): -2.01 and -0.373 and -0.411 | Thermodynamics (ITC) ΔG (T. brucei PKAR(199–499); independent replicates): -10.3 and -9.67 and -9.84 | Thermodynamics (ITC) ΔH (T. brucei PKAR(199–499); independent replicates): -8.26 and -9.3 and -9.43 | Molar ratio of binding (ITC) (T. brucei PKAR(199–499); ligand to protein, mean ± SD, n=3): 2.1 ± 0.1

Nc1nc2c(ncn2[C@@H]2O[C@@H]3COP(=O)(O)O[C@H]3[C@H]2O)c(=O)[nH]1 [cGMP]
concentration at which the holoenzyme is activated [6]: ≥ 100 µM | in vitro kinase assay [CPM], PKI ([6]; 0.1 mM + 5 µM PKI(5-24)): 375.47 CPM | in vitro kinase assay [CPM], average ([6]; 0.1 mM): 2249 CPM | in vitro kinase assay [CPM] ([6]; 0.1 mM): 2477.88 CPM and 2206.3 CPM and 2062.83 CPM | in vitro kinase assay [CPM], PKI ([6]; 1 mM + 5 µM PKI(5-24)): 760.33 CPM | in vitro kinase assay [CPM], average ([6]; 1 mM): 8405.46 CPM | in vitro kinase assay [CPM] ([6]; 1 mM): 9366.36 CPM and 9774.29 CPM and 6075.73 CPM | concentration at which the holoenzyme is activated [7]: ≥ 100 µM | in vitro kinase assay [CPM], PKI ([7]; 0.1 mM + 5 µM PKI(5-24)): 1137.33 CPM | in vitro kinase assay [CPM], average ([7]; 0.1 mM): 8446.6 CPM | in vitro kinase assay [CPM] ([7]; 0.1 mM): 9140 CPM and 8772.75 CPM and 7427.05 CPM | in vitro kinase assay [CPM], PKI ([7]; 1 mM + 5 µM PKI(5-24)): 3682.78 CPM | in vitro kinase assay [CPM], average ([7]; 1 mM): 22856.7 CPM | in vitro kinase assay [CPM] ([7]; 1 mM): 17347.2 CPM and 27346.7 CPM and 23876.3 CPM | cGMP concentration activating T. brucei PKA (T. brucei PKA [8]): ≥ 20 µM | concentration at which the holoenzyme is activated [9]: ≥ 100 µM | in vitro kinase assay [CPM], PKI ([9]; 0.1 mM + 5 µM PKI(5-24), Supp Fig 3b): 1147.4 CPM | in vitro kinase assay [CPM], average ([9]; 0.1 mM, Supp Fig 3b): 13459.0 CPM | in vitro kinase assay [CPM] ([9]; 0.1 mM, Supp Fig 3b): 15124.3 CPM and 11079.5 CPM and 14173.3 CPM | in vitro kinase assay [CPM], PKI ([9]; 1 mM + 5 µM PKI(5-24), Supp Fig 3b): 3732 CPM | in vitro kinase assay [CPM], PKI ([9]; 1 mM + 5 µM PKI(5-24), Supp Fig 3c): 1928.6 CPM | in vitro kinase assay [CPM], average ([9]; 1 mM, Supp Fig 3b): 48614.9 CPM | in vitro kinase assay [CPM] ([9]; 1 mM, Supp Fig 3b): 51091.7 CPM and 52665 CPM and 42088 CPM | in vitro kinase assay [CPM], average ([9]; 1 mM, Supp Fig 3c): 18465.6 CPM | in vitro kinase assay [CPM] ([9]; 1 mM, Supp Fig 3c): 15510 CPM and 18398 CPM and 21488.7 CPM
